# According to BindingDB's records for doi:10.1016/s0028-3908(97)00161-5 (University of Bristol, 1997):
# Target: Glutamate receptor (Oryctolagus cuniculus, UniProt G1SXH9)
# Sequence (G1SXH9 whole entry): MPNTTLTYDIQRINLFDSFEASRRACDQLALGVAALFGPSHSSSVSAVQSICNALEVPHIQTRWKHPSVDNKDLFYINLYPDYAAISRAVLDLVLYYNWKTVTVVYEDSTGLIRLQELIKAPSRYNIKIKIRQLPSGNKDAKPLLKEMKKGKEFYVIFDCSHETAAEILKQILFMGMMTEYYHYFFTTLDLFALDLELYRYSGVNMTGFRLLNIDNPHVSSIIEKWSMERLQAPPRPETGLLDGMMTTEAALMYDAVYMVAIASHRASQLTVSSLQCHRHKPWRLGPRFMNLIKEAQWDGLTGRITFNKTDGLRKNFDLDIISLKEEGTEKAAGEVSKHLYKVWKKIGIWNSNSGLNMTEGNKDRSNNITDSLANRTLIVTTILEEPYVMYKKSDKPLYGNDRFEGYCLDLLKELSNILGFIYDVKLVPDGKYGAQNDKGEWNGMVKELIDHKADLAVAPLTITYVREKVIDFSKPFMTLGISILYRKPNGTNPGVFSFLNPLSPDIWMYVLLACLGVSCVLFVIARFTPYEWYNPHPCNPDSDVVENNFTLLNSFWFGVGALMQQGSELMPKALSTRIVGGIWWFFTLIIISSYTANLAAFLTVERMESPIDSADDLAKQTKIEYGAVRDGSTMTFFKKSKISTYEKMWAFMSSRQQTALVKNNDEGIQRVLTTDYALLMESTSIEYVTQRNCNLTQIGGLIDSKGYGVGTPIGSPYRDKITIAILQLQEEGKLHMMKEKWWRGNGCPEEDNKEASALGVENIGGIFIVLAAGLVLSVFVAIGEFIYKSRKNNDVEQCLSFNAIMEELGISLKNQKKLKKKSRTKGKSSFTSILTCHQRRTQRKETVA
row,SMILES,Ki [nM]
1,C/C(=C\C=C\[C@@H](C)C(=O)O)[C@H]1CN[C@H](C(=O)O)[C@H]1CC(=O)O,0.71
2,"N[C@@H](Cn1oc(=O)[nH]c1=O)C(=O)O [2-amino-3-(3,5-dioxo[1,2,4]oxadiazolidin-2-yl)propionic acid]",16.5
3,N#Cc1cc2nc(O)c(O)nc2cc1[N+](=O)[O-] [7-Cyano-3-hydroxy-6-nitro-quinoxalin-2-ol anion],2150
4,N[C@@H](Cn1cc(F)c(=O)[nH]c1=O)C(=O)O [(S)-5-Fluorowillardiine],> 10000
5,CN[C@H](CC(=O)O)C(=O)O [NMDA],> 10000
